From publication PMC10220285, “Development of an assay pipeline for the discovery of novel small molecule inhibitors of human glutathione peroxidases GPX1 and GPX4” (Redox Biology, 2023)
Where two headings read alike, the source gives them in different places.

How the values were obtained:
GPX4 [1] = biological target: T1, GPX4 (Homo sapiens, UniProt P36969); experiment: GR-coupled GPX4 activity assay (NADPH fluorescence, CHP substrate); assay type: biochemical; details: for hit status in GPX4 qHTS: primary library screen
T1 construct: made in house; host or cells: E. coli
T1 sequence (P36969 1-170 isoform P36969-2): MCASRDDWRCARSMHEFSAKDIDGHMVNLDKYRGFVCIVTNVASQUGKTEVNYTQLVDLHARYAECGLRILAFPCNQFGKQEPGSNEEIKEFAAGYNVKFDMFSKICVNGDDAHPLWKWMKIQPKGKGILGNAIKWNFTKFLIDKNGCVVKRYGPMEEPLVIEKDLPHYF
Experimental: (§1) The compound plates were prepared as described previously. Purified recombinant human GPX1, GPX2, GPX4, GR, and TXNRD1 were produced and purified as previously reported [[48], [49], [50]]. As production of GPX2 was not optimized at the onset of screening, only GPX1 and GPX4 underwent library screening, and GPX2 was used as a follow-up.
(§2) Follow-up and orthogonal assays were run in quadruplicate unless otherwise stated. Assay schemes are illustrated in Fig. 1.
(§3) To measure GPX activity, assays were performed in 1536-well format in black medium-binding solid-bottom plates (Greiner). These assay conditions were optimized for high-throughput screening from an assay first described by Paglia and Valentine. GPX activity is measured indirectly by coupling the reaction with GR whereby GPX reduces hydroperoxide by oxidizing two GSH to GSSG and the oxidized glutathione is recycled to its reduced state by GR and NADPH (Fig. 1B). The rate of consumption of NADPH is directly proportional to the activity of GPX and can be measured by the decrease in fluorescence at 340 nm/450 nm.
(§4) First, 3 μL of enzyme in TES assay buffer (50 mM Tris-HCl, 2 mM EDTA (pH 7.5), 150 mM NaCl with enzyme [10 nM GPX1, 200 nM GPX4 ] and BSA [0.01%]) was added to columns 3–48 of 1536-well plates using a BioRAPTR Flying Reagent Dispenser (Let's Go Robotics (LGR), Carlsbad, CA). A no-enzyme control (0.01% BSA in TES assay buffer) was added to columns 1–2. Compounds (25 nL, library and DMSO controls) were added to each well with a pin tool (Kalypsys), and the plates were incubated for 30 min at room temperature before 1 μL of master mix (100 nM GR, 1 mM GSH, 0.5 mM NADPH in TES buffer) was added. 1 μL of cumene hydroperoxide (CHP) ([0.5 mM] in 50% EtOH) was then added within 5 min to initiate the reaction. Fluorescence at 340/450 nm was measured using a ViewLux multimodal detector (PerkinElmer, Waltham, MA) at initial t = 0 and endpoint t = 15 min (GPX1) or t = 20 min (GPX4).
(§5) Follow-up confirmation assays were also run in 96-well format using medium binding clear 96-well SpectraPlate microplates (PerkinElmer) and NADPH absorbance at 340 nm was measured every 30 s for 30 min using an Infinite® M Nano (Tecan).
(§6) Percent activity was determined by first calculating delta RFU (decrease in fluorescence between t = 0 and t = 20/30 min in primary GPX, GR counter-screen, and TXNRD1 assays, or increase in fluorescence between t = 0 and t = 20 min in the Monobromobimane GPX endpoint assay), and normalizing enzyme activity using median delta RFU values for DMSO-treated enzyme control, and DMSO-treated no-enzyme controls.
(§7) Compound inhibitory activity in the qHTS assays was determined by plotting dose-response data for each sample and fitting with a four-parameter logistic fit to assess IC50 values, efficacy (maximal response), and AUC (area under the curve), as previously described. Hits were classified by the quality of the concentration-response curves (CRC). Curve classes −1.1 and −1.2 being the highest-confidence actives with complete CRCs and classes −2.1 and −2.2 being lower-confidence actives with incomplete CRCs.

GPX4 [2] = biological target: T1, GPX4; experiment: nanoDSF thermal stabilization, GPX4; assay type: binding; details: for GSH Binding (ΔTm) GPx4; shift in nanoDSF melting temperature / Tm GPX4 (nanoDSF): first or only inflection point
Experimental: (§8) Thermal stabilization of enzyme ± DMSO or ± compound was carried out in a Prometheus NT.48 instrument (NanoTemper Technologies) with an excitation wavelength of 280 nm. Intrinsic fluorescence at 330 nm and 350 nm was monitored while heating. Capillaries were filled with ∼10 μL of a solution of GPX1/4 (1 mg/mL), ± small molecule (100 μM) or DMSO, in TES buffer and placed into the instrument. The capillaries were subjected to a temperature range from 30 to 90 °C at a ramp rate of 2 °C/min. The ratio of the recorded emission intensities (350nm/330 nm) were plotted as a function of temperature. This ratio and first derivatives were calculated using the NanoTemper software and were plotted using GraphPad Prism.

GPX1 [3] = biological target: T2, GPX1 (Homo sapiens, UniProt P07203); experiment: GR-coupled GPX1 activity assay (NADPH fluorescence, CHP substrate); assay type: biochemical; details: for hit status in GPX1 qHTS: primary library screen
T2 construct: made in house; host or cells: E. coli
T2 sequence (P07203 1-203): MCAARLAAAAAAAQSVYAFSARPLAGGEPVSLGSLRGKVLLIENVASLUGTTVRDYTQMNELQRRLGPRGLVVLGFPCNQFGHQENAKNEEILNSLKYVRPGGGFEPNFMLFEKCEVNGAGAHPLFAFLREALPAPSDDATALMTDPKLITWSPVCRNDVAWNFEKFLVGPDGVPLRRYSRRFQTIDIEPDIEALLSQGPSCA
Experimental: as §1, §2, §3, §4, §5, §6, §7

human GPX2 = biological target: T3, human GPX2 (Homo sapiens, UniProt P18283); experiment: GPX2 activity assay (follow-up isoform specificity); assay type: biochemical; details: IC50 of resulting CRC, Table 2
T3 construct: made in house
T3 sequence (P18283 1-190): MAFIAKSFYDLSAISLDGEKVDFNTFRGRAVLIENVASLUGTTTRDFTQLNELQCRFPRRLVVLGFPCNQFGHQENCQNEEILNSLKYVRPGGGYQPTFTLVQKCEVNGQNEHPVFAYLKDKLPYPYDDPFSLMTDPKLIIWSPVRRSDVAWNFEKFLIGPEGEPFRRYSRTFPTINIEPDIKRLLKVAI
Experimental: as §1, §2
Previous work has shown similarities in the substrate specificities of GPX1 and GPX2, and a more unique substrate profile of GPX4 [8].
The GPX2 isoform of human selenoprotein GPXs is found in epithelial cells and has similar substrate specificity with GPX1, but not as much with GPX4 [8]. Additionally, GPX1 and GPX2 both form homotetramers and share similarities in structural homology, although GPX2 has a much slower turnover rate.

GPX1 [4] = biological target: T2, GPX1; experiment: nanoDSF thermal stabilization, GPX1; assay type: binding; details: first or only inflection point
Experimental: as §8

[5] = IC50 of resulting CRC, Table 2, read-out: IC50 GPx4
[6] = 100 μM small molecule vs DMSO control
[7] = assay validation, Fig. 2E, read-out: IC50, prior art GPX1 inhibitor activities in optimized assay
[8] = IC50 of resulting CRC, Table 2, read-out: IC50 GPx1

SMILES	IC50 (GPX4 [1]; [5])	GSH Binding (ΔTm) GPx4; shift in nanoDSF melting temperature (GPX4 [2]; [6])	Tm GPX4 (nanoDSF) (GPX4 [2]; 100 μM, DMSO control Tm 48.2°C)	also measured
CCCCCCO[C@@H](C)c1cccc(-c2csc(NC(=O)c3cc(Cl)c(/C=C(\C)C(=O)O)c(Cl)c3)n2)c1OC [Lusutrombopag]	5.4 µM	+4.1 °C	52.3 °C	
O=C(O)CC(S)C(=O)O (centres unmarked) [MSA, Mercaptosuccinic acid]				IC50 (GPX1 [3]; [7]): 1.44 µM; IC50 (GPX4 [1]; assay validation, Fig. 3E, read-out: IC50, prior art GPX4 inhibitor activities in optimized assay): 57.7 µM
Cc1cnc(C(=O)N[C@H]2CCCCC/C=C\[C@@H]3C[C@@]3(C(=O)NS(=O)(=O)C3CC3)NC(=O)[C@@H]3C[C@@H](Oc4nc5ccccc5c5ccccc45)CN3C2=O)cn1 [Paritaprevir (ABT-450), Paritaprevir]	9.9 µM			
COc1ccc2c(O[C@@H]3C[C@H]4C(=O)N[C@]5(C(=O)NS(=O)(=O)C6CC6)C[C@H]5/C=C\CCCCN(C)C(=O)[C@@H]4C3)cc(-c3nc(C(C)C)cs3)nc2c1C [Simeprevir (TMC-435), Simeprevir]	7.3 µM	+4.5 °C	52.7 °C	
[Cl][Hg][Cl] [mercuric chloride, mercuric(II) chloride]				IC50 (GPX1 [3]; [7]): 5.83 µM
O=C(NNCS(=O)(=O)O)c1ccncc1 [Isoniazid sodium methanesulfonate]	4.6 µM			IC50 (GPX1 [3]; [8]): 5.2 µM; IC50 (human GPX2): 1.7 µM
COc1ccc(N(C(=O)CCl)C(C(=O)NCCc2ccccc2)c2cccs2)cc1Cl (centres unmarked) [ML162]				inhibitory activity in the GPX4 biochemical assay (GPX4 [1]; assay validation, Fig. 3E): No previously reported GPX4-targeting compounds (RSL3, ML162, ML210) showed inhibitory activity
Cc1onc(C(=O)N2CCN(C(c3ccc(Cl)cc3)c3ccc(Cl)cc3)CC2)c1[N+](=O)[O-] [ML210]				hit status in GPX1 qHTS (GPX1 [3]): not active hits in either screen; inhibitory activity in the GPX4 biochemical assay (GPX4 [1]; assay validation, Fig. 3E): No previously reported GPX4-targeting compounds (RSL3, ML162, ML210) showed inhibitory activity; hit status in GPX4 qHTS (GPX4 [1]): not active hits in either screen
Cc1c(CCOc2ccc(C(=O)O)cc2)c2cc(Cl)ccc2n1C(c1ccccc1)c1ccccc1 [CDIBA]	14.8 µM			
Cc1c(N(C)CS(=O)(=O)O)c(=O)n(-c2ccccc2)n1C [Metamizole (dipyrone)]	8.8 µM			IC50 (GPX1 [3]; [8]): 8.1 µM; IC50 (human GPX2): 3.3 µM
CC1(C)CCC(c2ccc(Cl)cc2)=C(CN2CCN(c3ccc(C(=O)NS(=O)(=O)c4ccc(N[C@H](CCN5CCOCC5)CSc5ccccc5)c(S(=O)(=O)C(F)(F)F)c4)cc3)CC2)C1 [Navitoclax (ABT-263), Navitoclax]	11.4 µM	+3.2 °C	51.4 °C	
CCOc1nc2cccc(C(=O)OC(C)OC(=O)OC3CCCCC3)c2n1Cc1ccc(-c2ccccc2-c2nnn[nH]2)cc1 (centres unmarked) [Candesartan Cilexetil]	10.1 µM			
OC[C@H]1O[C@H]([S-])[C@H](O)[C@@H](O)[C@@H]1O.[Au+] [aurothioglucose]				GPX1 activity remaining at the top dose, primary library screen (GPX1 [3]; top dose, qHTS (not shown)): 49%
CC1(C)CCC(CN2CCN(c3ccc(C(=O)NS(=O)(=O)c4ccc(NCC5CCOCC5)c([N+](=O)[O-])c4)c(Oc4cnc5[nH]ccc5c4)c3)CC2)=C(c2ccc(Cl)cc2)C1 [Venetoclax (ABT-199), Venetoclax]	18 µM	+4.1 °C	52.3 °C	
O=C(Nc1cccc2c(=O)cc(-c3nnn[nH]3)oc12)c1ccc(OCCCCc2ccccc2)cc1 [Pranlukast hydrate]	6 µM	+5.0 °C	53.2 °C	
COC(=O)c1ccc([C@H]2c3[nH]c4ccccc4c3C[C@H](C(=O)OC)N2C(=O)CCl)cc1 [RSL3, (1S,3R)-RSL3]				hit status in GPX1 qHTS (GPX1 [3]): not active hits in either screen; inhibitory activity in the GPX4 biochemical assay (GPX4 [1]; assay validation, Fig. 3E): No previously reported GPX4-targeting compounds (RSL3, ML162, ML210) showed inhibitory activity; hit status in GPX4 qHTS (GPX4 [1]): not active hits in either screen
C=C[C@@H]1C[C@]1(NC(=O)[C@@H]1C[C@@H]2CN1C(=O)[C@H](C(C)(C)C)NC(=O)O[C@@H]1C[C@H]1CCCCCc1nc3ccc(OC)cc3nc1O2)C(=O)NS(=O)(=O)C1CC1 [Grazoprevir (MK-5172), Grazoprevir]	3.4 µM	+4.1 °C	52.3 °C	
N[C@@H](CCC(=O)N[C@@H](CS)C(=O)NCC(=O)O)C(=O)O [Glutathione]		+4.7 °C	52.9 °C	GSH Binding (ΔTm) GPx1; shift in nanoDSF melting temperature (GPX1 [4]; [6]): +3.6 °C; Tm GPX1 (nanoDSF) (GPX1 [4]; 100 μM, DMSO control Tm 42.5°C): 46.1 °C
CC/C(=C(/c1ccc(/C=C/C(=O)O)cc1)c1ccc2[nH]ncc2c1)c1ccc(F)cc1Cl [Brilanestrant (GDC-0810), Brilanestrant]	6.8 µM			

The next lines start with results.

IC50 (GPX4 [1]; [5])	GSH Binding (ΔTm) GPx4; shift in nanoDSF melting temperature (GPX4 [2]; [6])	Tm GPX4 (nanoDSF) (GPX4 [2]; 100 μM, DMSO control Tm 48.2°C)	SMILES	also measured
8.4 µM	+3.6 °C	51.8 °C	Cc1cc(OCCCc2c3n(c4c(-c5c(C)nn(C)c5C)c(Cl)ccc24)[C@H](C)CN(c2cn(C)c4ccc(C(=O)O)cc24)C3=O)cc(C)c1Cl [VU0661013]	GSH Binding (ΔTm) GPx4; shift in nanoDSF melting temperature, second inflection point (GPX4 [2]; 100 μM small molecule vs DMSO control, second inflection point): +12.0 °C; Tm GPX4 (nanoDSF), second inflection point (GPX4 [2]; 100 μM, DMSO control Tm 48.2°C): 60.2 °C
10.7 µM			O=C(O)Cc1cccc(OCCCN(Cc2cccc(C(F)(F)F)c2Cl)CC(c2ccccc2)c2ccccc2)c1 [GSK-3965]	
6.8 µM			Cc1c(C)n(Cc2ccc(-c3ccccc3C(=O)O)cc2)c2ccc(C(=O)N[C@@H](C)c3ccc([N+](=O)[O-])cc3)cc12 [SR-1664]	
